From patent US20230020036A1, “TREATMENT OF EPILEPTIC CONDITIONS WITH GABAA RECEPTOR MODULATORS” (NEUROCYCLE THERAPEUTICS, INC., priority 2019, published 2023)
Where “and” joins values, the source holds several entries; their conditions need not be identical. Equal entries are not always repeated. Entries after “also recorded” stand apart in the source; their conditions may differ.

Test system: Scn1a+/- heterozygous knockout mice ([129xB]F1.Scn1a+/-), heat-induced seizures
Test: Hyperthermia-induced seizure study in Scn1a+/- heterozygous knockout mice
Assay type: in vivo, mouse
Design: Temp Change: unit not given here
Details: for amount of seizures relative to administration of vehicle: Table 10 summary; for performance compared with the clobazam positive control: clobazam 10 mg/kg; for efficacy at preventing heat-induced seizures: summary of the seizure study, FIG. 13
From the text: Reason for selection of species: The Scn1a^+/− knockout mouse ([129xB]F1. Scn1a^+/−) is a model subject of DS with a high translational value.
Between P14 and 16, Scn1a^+/− heterozygous knockout mice are randomly assigned to treatment groups (n=7 males, 7 females/treatment group). The Scn1a^+/− knockout mouse model was chosen because it is an art accepted animal model for epileptic conditions, including for Dravet Syndrome. Treatments are GABAA receptor modulator 1 (“Compound 1” as a phosphate salt at 0.1, 0.3, 1.0 mg/kg), GABAA receptor modulator 2 (“Compound 2” at 3, 10, 30, 100 mg/kg), vehicle, or Clobazam (“CBZ”) (10 mg/kg; positive control).
The GABAA receptor modulators were administered intraperitoneally (i.p.) using a 0.5 or 1-ml plastic syringe fitted with a 27 or 30 gauge 0.5″-long beveled needle.
Animals received 10 mL of formulation per kg of body weight as measured on the day of experiment.
In order to verify the dose concentration, mice were dosed with a test article or control and placed into individual housing cages. A temperature probe was gently inserted into the mouse's rectum and secured by taping the probe's wire to the mouse's tail with the tag end on the mouse's dorsal side. For each group, the insertion of the probe was as follows: • a. For mice administered CBZ, five (5) mins passed before insertion of the probe in order to allow 20-30 min pretreatment time when the state of hyperthermia reached. • b. For mice administered Compound 1, thirty-five (35) mins passed before insertion of the probe in order to allow 50-60 min pretreatment time when the state of hyperthermia is reached. • c. For mice administered […], five (5) mins passed before insertion of the probe in order to allow 20-30 min pretreatment time when the state of hyperthermia reached.
Each mouse was allowed to acclimate to the temperature probe for five (5) minutes before recording the baseline temperature. FIGS. 1-3 depict the starting temperatures of the female mice, the male mice, and the average starting temperatures of all mice prior to inducing the heat-induced seizures.
FIGS. 4-6 depict the final core body temperature of the female mice, the male mice, and the average final core body temperature of all mice after heating. FIGS. 7-9 illustrate the total temperature change for the female mice, the male mice, and average of all mice; while FIGS. 10-12 depict the average temperature change per minute for the female mice, the male mice, and average of all mice. The mouse's body temperature was maintained at 42.5° C. for 3 mins. If no seizure occurred, the mouse was considered seizure-free.

[1] = Clobazam 10 mg/kg i.p., 30 minute pretreatment, individual animals, female mice
[2] = Clobazam 10 mg/kg i.p., 30 minute pretreatment, individual animals, male mice
[3] = 0.1 mg/kg i.p., 60 minute pretreatment, individual animals, female mice
[4] = 0.1 mg/kg i.p., 60 minute pretreatment, individual animals, male mice
[5] = 0.3 mg/kg i.p., 60 minute pretreatment, individual animals, female mice
[6] = 0.3 mg/kg i.p., 60 minute pretreatment, individual animals, male mice
[7] = 3 mg/kg i.p., 30 minute pretreatment, individual animals, female mice
[8] = 3 mg/kg i.p., 30 minute pretreatment, individual animals, male mice
[9] = Compound 2 30 mg/kg, 30 minute pretreatment, individual animals, female mice
[10] = Compound 2 30 mg/kg, 30 minute pretreatment, individual animals, male mice
[11] = Compound 2 100 mg/kg, 30 minute pretreatment, individual animals, female mice
[12] = Compound 2 100 mg/kg, 30 minute pretreatment, individual animals, male mice

SMILES: CN1C(=O)CC(=O)N(c2ccccc2)c2cc(Cl)ccc21 [Clobazam, reference compound]
- Total With No Seizure (Clobazam 10 mg/kg i.p., 30 minute pretreatment): 38%
- End Temp [1]: 42.3 °C and 42 °C and 42.2 °C and 42.7 °C (2×) and 42.6 °C (4×) and 42.5 °C (2×) and 42.9 °C
- Observations [1]: Tonic-clonic, squeek; also recorded: seizure free, 3 min hold; also recorded: Tonic-clonic on the onset; also recorded: Tonic-clonic, HLE
- End Temp [2]: 41.9 °C and 42.6 °C (2×) and 42.5 °C (3×) and 42.9 °C and 42.8 °C and 41.8 °C and 42 °C and 41.7 °C and 42.1 °C
- Observations [2]: seizure free, 3 min hold; also recorded: Tonic-clonic seizure; also recorded: Tonic-clonic seizure,; also recorded: Tonic-clonic, squeek; also recorded: Tonic-clonic on the onset
- End Temperature (summary, 10 mg/kg (n = 24)): 42.42 °C
- Seizure free % (summary, 10 mg/kg (n = 24)): 38%
- Temp Change (summary, 10 mg/kg (n = 24)): 7.60
- Temp Change/min (summary, 10 mg/kg (n = 24)): 0.53

SMILES: CC(C)(O)c1cnn2c(-c3ccc(F)c(-c4c(F)cccc4C#N)c3)cnc2n1 [Compound 1]
- Total With No Seizure (0.1 mg/kg i.p., 60 minute pretreatment): 6%
- End Temp [3]: 41.9 °C and 41.8 °C and 41.6 °C and 42 °C and 41.7 °C and 42.8 °C and 41.4 °C and 41.2 °C
- Observations [3]: Tonic-clonic, squeek; also recorded: Seizure free, 3 min hold
- End Temp [4]: 42.6 °C and 41.8 °C and 40.8 °C and 42 °C and 42.1 °C and 41.5 °C and 42.2 °C and 41.6 °C
- Observations [4]: Tonic-clonic, seizure; also recorded: Tonic-clonic, squeek
- Total With No Seizure (0.3 mg/kg i.p., 60 minute pretreatment): 33%
- End Temp [5]: 41.7 °C and 41.4 °C and 42.3 °C (2×) and 42.5 °C and 42.8 °C and 42.1 °C and 42.2 °C and 42.7 °C
- Observations [5]: Tobic-clonic, squeek, HLE; also recorded: Seizure free, 3 min hold; also recorded: tonic-clonic, squeek, HLE
- End Temp [6]: 41.4 °C and 42.4 °C (2×) and 42.8 °C and 41.9 °C and 42.2 °C and 42.6 °C (2×) and 43 °C
- Observations [6]: Tonic,-clonic, squeek; also recorded: Tonic-clonic, squeek; also recorded: Seizure free, 3 min hold
- Total With No Seizure (1.0 mg/kg i.p., 60 minute pretreatment): 36%
- Observations (1.0 mg/kg i.p., 60 minute pretreatment, individual animals): Tonic-clonic seizure,; also recorded: seizure free, 3 min hold; also recorded: Tonic-clonic seizure; also recorded: Tonic-clonic, Squeek
- End Temp (1.0 mg/kg i.p., 60 minute pretreatment, individual animals, female mice): 42.2 °C (2×) and 42.8 °C (2×) and 42.4 °C and 42.5 °C (3×) and 42.3 °C and 42.9 °C and 42.1 °C
- End Temp (1.0 mg/kg i.p., 60 minute pretreatment, individual animals, male mice): 41.9 °C and 42.5 °C (2×) and 42.9 °C and 42.3 °C and 42.2 °C and 42.8 °C (2×) and 41.5 °C and 41.3 °C and 42.6 °C
- amount of seizures relative to administration of vehicle: reduced the amount of seizures
- performance compared with the clobazam positive control: performed at least as well as the clobazam positive control
- efficacy at preventing heat-induced seizures: effective at preventing heat-induced seizures
- End Temperature (summary, 0.1 mg/kg (n = 16)): 41.81 °C
- Seizure free % (summary, 0.1 mg/kg (n = 16)): 6%
- Temp Change (summary, 0.1 mg/kg (n = 16)): 6.66
- Temp Change/min (summary, 0.1 mg/kg (n = 16)): 0.52
- End Temperature (summary, 0.3 mg/kg (n = 18)): 42.29 °C
- Seizure free % (summary, 0.3 mg/kg (n = 18)): 33%
- Temp Change (summary, 0.3 mg/kg (n = 18)): 7.15
- Temp Change/min (summary, 0.3 mg/kg (n = 18)): 0.48
- End Temperature (summary, 1.0 mg/kg (n = 22)): 42.39 °C
- Seizure free % (summary, 1.0 mg/kg (n = 22)): 36%
- Temp Change (summary, 1.0 mg/kg (n = 22)): 7.05
- Temp Change/min (summary, 1.0 mg/kg (n = 22)): 0.46

SMILES: C#Cc1ccc2c(c1)C(c1ccccn1)=NCc1c(-c3nc(CC)no3)ncn1-2 [Compound 2]
- Total With No Seizure (3 mg/kg i.p., 30 minute pretreatment): 7%
- End Temp [7]: 42.6 °C and 41.8 °C and 41.7 °C (2×) and 42.2 °C and 42.4 °C and 41.4 °C
- Observations [7]: Seizure free, 3 min hold; also recorded: Tonic-clonic, squeek
- End Temp [8]: 41.3 °C (2×) and 41.7 °C and 42.1 °C and 41.8 °C and 42 °C and 42.5 °C
- Observations [8]: Tonic-clonic, squeek; also recorded: Tonic-clonic on the onset
- prevention of seizures (100 mg/kg dose, n=8): completely preventing seizures in each animal
- dose dependence of seizure prevention (3, 10, 30, 100 mg/kg): prevented seizures in a dose-dependent fashion
- Total With No Seizure (Compound 2 10 mg/kg i.p., 30 minute pretreatment): 50%
- Observations (Compound 2 10 mg/kg i.p., 30 minute pretreatment, individual animals): Tonic-clonic, squeek
- End Temp (Compound 2 10 mg/kg i.p., 30 minute pretreatment, individual animals, female mice): 42.7 °C (2×) and 42.8 °C (2×) and 42.6 °C and 42.1 °C and 42.5 °C
- End Temp (Compound 2 10 mg/kg i.p., 30 minute pretreatment, individual animals, male mice): 42.5 °C (3×) and 42.8 °C and 42 °C and 40 °C and 42.7 °C
- Total With No Seizure (Compound 2 30 mg/kg, 30 minute pretreatment): 73%
- End Temp [9]: 42.5 °C and 41.5 °C and 42.8 °C (2×) and 42.7 °C (3×) and 42.6 °C
- Observations [9]: seizure free, 3 min hold; also recorded: Tonic-clonic seizure
- Temp Change [9]: 9.1 and 5.3 and 6.3 and 6.2 and 7.9 and 7.2 and 6.6 and 7.4
- Temp Change/min [9]: 0.51 and 0.48 (2×) and 0.41 and 0.46 and 0.55 and 0.39 and 0.35
- End Temp [10]: 42.5 °C and 42.8 °C and 42.6 °C and 43 °C and 42.7 °C (2×) and 41.6 °C
- Observations [10]: Tonic-clonic, squeek; also recorded: Seizure free, 3 min hold
- Temp Change [10]: 7.3 and 6.8 and 7.8 and 7.5 (2×) and 9.6 and 7
- Temp Change/min [10]: 0.66 and 0.49 and 0.41 and 0.54 and 0.53 and 0.50 and 0.63
- Total With No Seizure (Compound 2 100 mg/kg, 30 minute pretreatment): 100%
- End Temp [11]: 42.9 °C and 42.7 °C (2×) and 42.5 °C
- Observations [11]: Seizure free, 3 min hold
- Temp Change [11]: 8.2 and 7.4 and 7.7 and 8.5
- Temp Change/min [11]: 0.59 and 0.53 and 0.33 and 0.50
- End Temp [12]: 42.6 °C (2×) and 42.7 °C and 42.5 °C
- Observations [12]: Seizure free, 3 min hold
- Temp Change [12]: 7.4 and 7.2 and 9.7 and 7.7
- Temp Change/min [12]: 0.31 and 0.36 and 0.54 and 0.29
- amount of seizures relative to administration of vehicle: reduced the amount of seizures
- performance compared with the clobazam positive control: performed at least as well as the clobazam positive control
- efficacy at preventing heat-induced seizures: effective at preventing heat-induced seizures
- End Temperature (summary, 3 mg/kg (n = 14)): 41.89 °C
- Seizure free % (summary, 3 mg/kg (n = 14)): 7%
- Temp Change (summary, 3 mg/kg (n = 14)): 6.61
- Temp Change/min (summary, 3 mg/kg (n = 14)): 0.45
- End Temperature (summary, 10 mg/kg (n = 14)): 42.37 °C
- Seizure free % (summary, 10 mg/kg (n = 14)): 50%
- Temp Change (summary, 10 mg/kg (n = 14)): 7.09
- Temp Change/min (summary, 10 mg/kg (n = 14)): 0.47
- End Temperature (summary, 30 mg/kg (n = 15)): 42.55 °C
- Seizure free % (summary, 30 mg/kg (n = 15)): 73%
- Temp Change (summary, 30 mg/kg (n = 15)): 7.30
- Temp Change/min (summary, 30 mg/kg (n = 15)): 0.49
- End Temperature (summary, 100 mg/kg (n = 8)): 42.60 °C
- Seizure free % (summary, 100 mg/kg (n = 8)): 100%
- Temp Change (summary, 100 mg/kg (n = 8)): 8.00
- Temp Change/min (summary, 100 mg/kg (n = 8)): 0.37
